Experiment [1] deals with pseudo-kinase domain (JH2) of human Wild Type JAK2 (Homo sapiens (Human), UniProt O60674, F794H/W659A/W777A). Put plainly: JAK2 LanthaScreen JH2-WT Binding Assay. As to conditions: 50 nM tracer, 1 hour at 25° C. How it is done: Example B. JAK2 LanthaScreen JH2-WT Binding Assay
(§1) JAK2 JH2-WT binding assay utilizes pseudo-kinase domain (JH2, amino-acids 536-812 with 3 surface mutations W659A, W777A, F794H) of human Wild Type JAK2 expressed as C-terminal His-Avi-tagged, biotinylated protein in a baculovirus expression system (BPS Bioscience, Catalog #79463). The assay was conducted in black 384-well polystyrene plates in a final reaction volume of 20 μL. JAK2 JH2-WT (0.145 nM) was incubated with compounds (100 nL serially diluted in DMSO) in the presence of 50 nM Fluorescent JAK2-JH2 Tracer (MedChem Express Catalog #HY-102055) and 0.25 nM Streptavidin-Tb cryptate (Cisbio Part #610SATLB) in assay buffer (50 mM Tris, pH=7.5, 10 mM MgCl2, 0.01% Brij-35, 0.1% BSA, 1 mM EGTA, 5% Glycerol and 5 mM DTT). Non-specific binding was accessed in the presence of 2 mM ATP. After incubation for 1 hour at 25° C., LanthaScreen signals were read on a PHERAstar FS plate reader (BMG LABTECH). Data was analyzed with IDBS XLfit and GraphPad Prism 5.0 software using a four parameter dose response curve to determine IC50 for each compound.
On the technique in general: Time-resolved FRET reads energy transfer from a long-lived donor to a nearby acceptor.

Experiment [2] addresses T1, catalytic domain (JH1) of human JAK2 (Homo sapiens (Human), UniProt O60674). In words: JAK2 HTRF Enzyme Activity Assay. The class given is biochemical. Conditions: ATP 30 μM; read-out: ENZ 30UMATP IC50. The protocol:
Example D. JAK2 HTRF Enzyme Activity Assay
JAK2 enzyme activity assays utilize catalytic domain (JH1, amino acids 808-1132) of human JAK2 expressed as N-terminal His-tagged protein in a baculovirus expression system (BPS Bioscience, Catalog #40450). The assays was conducted in black 384-well polystyrene plates in a final reaction volume of 20 μL. JAK2 (0.015 nM) was incubated with compounds (100 nL serially diluted in DMSO) in the presence of ATP (30 μM or 1 mM) and 500 nM Biotin-labeled EQEDEPEGDYFEWLE (SEQ ID NO.: 1) peptide (BioSource International, custom synthesis) in assay buffer (50 mM Tris, pH=7.5, 10 mM MgCl2, 0.01% Brij-35, 0.1% BSA, 1 mM EGTA, 5% Glycerol and 5 mM DTT) for 60 minutes at 25° C. The reactions were stopped by the addition of 10 μL of detection buffer (50 mM Tris, pH 7.8, 0.5 mg/mL BSA, 150 mM NaCl), supplemented with EDTA, LANCE Eu-W1024 anti-phosphotyrosine (PY20), (PerkinElmer, Catalog #AD0067) and Streptavidin SureLight APC (PerkinElmer Catalog #CR130-100), for a final concentration of 15 mM, 1.5 nM and 75 nM, respectively. HTRF signals were read after 30 minutes incubation at room temperature on a PHERAstar FS plate reader (BMG LABTECH). Data was analyzed with IDBS XLfit and GraphPad Prism 5.0 software using a four parameter dose response curve to determine IC50 for each compound.
Target sequence in this assay (O60674 808-1132): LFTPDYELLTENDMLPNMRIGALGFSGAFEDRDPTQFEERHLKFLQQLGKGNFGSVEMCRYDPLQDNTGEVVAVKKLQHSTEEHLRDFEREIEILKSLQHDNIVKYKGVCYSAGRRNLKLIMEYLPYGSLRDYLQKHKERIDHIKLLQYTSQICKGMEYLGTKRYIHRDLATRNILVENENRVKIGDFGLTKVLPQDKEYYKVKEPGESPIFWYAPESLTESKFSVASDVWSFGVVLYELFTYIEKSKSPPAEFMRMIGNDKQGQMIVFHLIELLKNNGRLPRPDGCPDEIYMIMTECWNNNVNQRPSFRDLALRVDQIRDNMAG

For experiment [3], the target named is pseudo-kinase domain (JH2) of human V617F mutant JAK2 (Homo sapiens (Human), UniProt O60674, F794H/V617F/W659A/W777A). In words: JAK2 LanthaScreen JH2-V617F Binding Assay. Conditions: 50 nM tracer, 1 hour at 25° C. The protocol: Example C. JAK2 LanthaScreen JH2-V617F Binding Assay
Sequence of pseudo-kinase domain (JH2) of human V617F mutant JAK2 (O60674 536-812 V617F/W659A/W777A/F794H): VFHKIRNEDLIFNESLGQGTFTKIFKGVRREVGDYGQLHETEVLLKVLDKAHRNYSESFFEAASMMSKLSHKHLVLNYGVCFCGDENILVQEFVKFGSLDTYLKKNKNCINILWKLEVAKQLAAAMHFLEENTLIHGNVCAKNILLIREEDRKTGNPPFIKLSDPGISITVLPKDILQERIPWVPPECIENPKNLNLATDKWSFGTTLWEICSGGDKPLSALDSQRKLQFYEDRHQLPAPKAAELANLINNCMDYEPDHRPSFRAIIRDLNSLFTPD
as §1, with “JH2-V617F” for “JH2-WT”, “V617F mutant” for “Wild Type”, “#79498).” for “#79463).”, “JH2-V617F (0.26” for “JH2-WT (0.145”

The target in experiment [4] is T1, catalytic domain (JH1) of human JAK2. Put plainly: JAK2 LanthaScreen JH1 Binding Assay. Conditions: JAK2 JH1, 50 nM tracer, 2 hours at 25° C. How it is done:
Example A. JAK2 LanthaScreen JH1 Binding Assay
JAK2 JH1 binding assay utilizes catalytic domain (JH1, amino acids 826-1132) of human JAK2 expressed as N-terminal FLAG-tagged, biotinylated protein in a baculovirus expression system (Carna Biosciences, Product #08-445-20N). The assay was conducted in black 384-well polystyrene plates in a final reaction volume of 20 μL. JAK2 JH1 (1.5 nM) was incubated with compounds (100 nL serially diluted in DMSO) in the presence of 50 nM Fluorescent JAK2-JH1 Tracer and 0.5 nM Streptavidin-Tb cryptate (Cisbio Part #610SATLB) in assay buffer (50 mM Tris, pH=7.5, 10 mM MgCl2, 0.01% Brij-35, 0.1% BSA, 1 mM EGTA, 5% Glycerol and 5 mM DTT). Non-specific binding was accessed in the presence of 2 mM ATP. After incubation for 2 hours at 25° C., LanthaScreen signals were read on a PHERAstar FS plate reader (BMG LABTECH). Data was analyzed with IDBS XLfit and GraphPad Prism 5.0 software using a four parameter dose response curve to determine IC50 for each compound.
Target sequence in this assay (O60674 826-1132): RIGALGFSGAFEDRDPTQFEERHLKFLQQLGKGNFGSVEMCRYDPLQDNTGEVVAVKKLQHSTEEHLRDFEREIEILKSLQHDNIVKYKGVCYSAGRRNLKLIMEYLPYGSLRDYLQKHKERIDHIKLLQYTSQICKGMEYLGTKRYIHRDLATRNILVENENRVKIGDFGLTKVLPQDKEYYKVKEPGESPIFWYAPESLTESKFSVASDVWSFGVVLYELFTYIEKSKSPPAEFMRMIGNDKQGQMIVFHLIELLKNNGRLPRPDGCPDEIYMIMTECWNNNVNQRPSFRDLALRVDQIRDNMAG

SMILES strings stand for the structures. Where a name gives a salt, the structure may show the parent alone. Where only a bound is given, the exact number is not on record here.

Sequence of pseudo-kinase domain (JH2) of human Wild Type JAK2 (O60674 536-812 W659A/W777A/F794H): as the sequence (O60674 536-812 V617F/W659A/W777A/F794H) above, with F82V counted along it

For orientation: IC50 means the concentration that inhibits the measured activity by half. With `[2H]C([2H])([2H])N1C(=O)C2(CCC(NC(=O)NCC)CC2)c2cc(Nc3ccc4cccc(C(F)(F)F)c4n3)ncc21` (single isomer, unassigned) [Example 1, 1-Ethyl-3-((1s,4s)-1′-(methyl-d3)-2′-oxo-5′-((8-(trifluoromethyl)quinolin-2-yl)amino)-1′,2′-dihydrospiro[cyclohexane-1,3′-pyrrolo[2,3-c]pyridin]-4-yl)urea, trifluoroacetate salt], the half-inhibitory concentration (IC50) in experiment [1] was ≤ 100 nM.

For `CCNC(=O)NC1CCC2(CC1)C(=O)N(C)c1cnc(Nc3ccc4cccc(C(F)(F)F)c4n3)cc12` (single isomer, unassigned) [Example 2, 1-Ethyl-3-((1r,4r)-1′-(methyl-d3)-2′-oxo-5′-((8-(trifluoromethyl)quinolin-2-yl)amino)-1′,2′-dihydrospiro[cyclohexane-1,3′-pyrrolo[2,3-c]pyridin]-4-yl)urea, trifluoroacetate salt], in experiment [1], the IC50 was ≤ 100 nM. Consider `[2H]C([2H])([2H])N1c2cnc(Nc3ccc4cccc(C(F)(F)F)c4n3)cc2[C@]2(C[C@@H](CNC(=O)OC)C2)C1=O` [Example 3, Methyl (((1r,3r)-1′-(methyl-d3)-2′-oxo-5′-((8-(trifluoromethyl)quinolin-2-yl)amino)-1′,2′-dihydrospiro[cyclobutane-1,3′-pyrrolo[2,3-c]pyridin]-3-yl)methyl)carbamate, trifluoroacetate salt], for which the results for the IC50 in experiment [2] and in experiment [3] were > 2500 nM and ≤ 100 nM, respectively. The corresponding values for `[2H]C([2H])([2H])N1c2cnc(Nc3ccc4cccc(C(F)(F)F)c4n3)cc2[C@]2(C[C@@H](CNC(=O)C3CC3)C2)C1=O` [Example 4, N-(((1r,3r)-1′-(Methyl-d3)-2′-oxo-5′-((8-(trifluoromethyl)quinolin-2-yl)amino)-1′,2′-dihydrospiro[cyclobutane-1,3′-pyrrolo[2,3-c]pyridin]-3-yl)methyl)cyclopropanecarboxamide, trifluoroacetate salt] are > 2500 nM and ≤ 100 nM.

For `CCNC(=O)NC1CCC2(CC1)C(=O)N(C)c1cnc(Nc3ccc4cccc(C(F)(F)F)c4n3)cc12` (single isomer, unassigned) [Example 1, 1-Ethyl-3-((1s,4s)-1′-(methyl-d3)-2′-oxo-5′-((8-(trifluoromethyl)quinolin-2-yl)amino)-1′,2′-dihydrospiro[cyclohexane-1,3′-pyrrolo[2,3-c]pyridin]-4-yl)urea, trifluoroacetate salt], the IC50 in experiment [2] was > 2500 nM; in experiment [4] it was > 2500 nM; in experiment [3], ≤ 100 nM. With `[2H]C([2H])([2H])N1c2cnc(Nc3ccc4c(n3)c(-c3cnn(C(F)(F)F)c3)nn4C)cc2[C@]2(C[C@@H](CNC(=O)OC)C2)C1=O` [Example 6, Methyl (((1r,3r)-1′-(methyl-d3)-5′-((1-methyl-3-(1-(trifluoromethyl)-1H-pyrazol-4-yl)-1H-pyrazolo[4,3-b]pyridin-5-yl)amino)-2′-oxo-1′,2′-dihydrospiro[cyclobutane-1,3′-pyrrolo[2,3-c]pyridin]-3-yl)methyl)carbamate, trifluoroacetate salt], the values for the half-inhibitory concentration (IC50) in experiment [2] and in experiment [3] were > 2500 nM and ≤ 100 nM, respectively. The corresponding values for `[2H]C([2H])([2H])N1c2cnc(Nc3ccc4c(n3)c(-c3cnn(C(F)(F)F)c3)nn4C)cc2[C@]2(C[C@@H](CO)C2)C1=O` [Example 5, (1r,3r)-3-(Hydroxymethyl)-1′-(methyl-d3)-5′-((1-methyl-3-(1-(trifluoromethyl)-1H-pyrazol-4-yl)-1H-pyrazolo[4,3-b]pyridin-5-yl)amino)spiro[cyclobutane-1,3′-pyrrolo[2,3-c]pyridin]-2′(1′H)-one, trifluoroacetate salt] are > 2500 nM and ≤ 100 nM.

On to `[2H]C([2H])([2H])N1c2cnc(Nc3ccc4c(n3)c(-c3cnn(C(F)(F)F)c3)nn4C)cc2[C@]2(C[C@@H](CNC(=O)C3CC3)C2)C1=O` [Example 7, N-(((1r,3r)-1′-(Methyl-d3)-5′-((1-methyl-3-(1-(trifluoromethyl)-1H-pyrazol-4-yl)-1H-pyrazolo[4,3-b]pyridin-5-yl)amino)-2′-oxo-1′,2′-dihydrospiro[cyclobutane-1,3′-pyrrolo[2,3-c]pyridin]-3-yl)methyl)cyclopropanecarboxamide, trifluoroacetate salt], for which the IC50 in experiment [2] was > 2500 nM; in experiment [3] it was ≤ 100 nM.

Source of the values: US20250101020A1, “SPIROCYCLIC LACTAM INHIBITORS” (Incyte Corporation, priority 2023, published 2025).
